Assay results reported in patent US9708314B2, “Heterocyclic amide compound” (NISSAN CHEMICAL INDUSTRIES, LTD., priority 2013, dated 2017).

What was measured:
Format in all cases: in vivo
Triticum aestivum = experiment: Test Example 4: effect on crop by application to foliage (diluvial soil, plastic box); details: Application herbicide amount 320 g/ha; foliage application
How it was run: (§1)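 Scores run from 0 (herbicidal ratio ≤5%) to 5 (≥90%, almost fully withered) and were assessed three weeks after foliar spraying. Seedlings had been raised for 14 days at 25-30° C in sterilized diluvial soil before treatment, with the emulsion diluted in water to the stated g/ha dose.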

Brassica campestris L. = experiment: as above; details: Application herbicide amount 320 g/ha; foliage application
How it was run: as §1

Glycine max = experiment: as above; details: Application herbicide amount 320 g/ha; foliage application
How it was run: as §1

[1] = test system: Beta vulgaris ssp. vulgaris; experiment: as above; details: Application herbicide amount 320 g/ha; foliage application
How it was run: as §1

Zea mays = experiment: as above; details: Application herbicide amount 320 g/ha; foliage application
How it was run: as §1

Avena fatua = experiment: Test Example 4: herbicidal effect by application to foliage (diluvial soil, plastic box); details: Application herbicide amount 320 g/ha; foliage application
How it was run: as §1

Abutilon theophrasti = experiment: as above; details: Application herbicide amount 320 g/ha; foliage application
How it was run: as §1

Amaranthus retroflexus = experiment: as above; details: Application herbicide amount 320 g/ha; foliage application
How it was run: as §1

[2] = test system: Echinochloa crus-galli var. crus-galli; experiment: as above; details: Application herbicide amount 320 g/ha; foliage application
How it was run: as §1

Digitaria ciliaris = experiment: as above; details: Application herbicide amount 320 g/ha; foliage application
How it was run: as §1

Stellaria media = experiment: as above; details: Application herbicide amount 320 g/ha; foliage application
How it was run: as §1

Lolium multiflorum Lam. = experiment: as above; details: Application herbicide amount 320 g/ha; foliage application
How it was run: as §1

Alopecurus myosuroides = experiment: as above; details: Application herbicide amount 320 g/ha; foliage application
How it was run: as §1

Apera spica-venti. = experiment: as above; details: Application herbicide amount 320 g/ha; foliage application
How it was run: as §1

Galium spurium = experiment: as above; details: Application herbicide amount 320 g/ha; foliage application
How it was run: as §1

Veronica persica = experiment: as above; details: Application herbicide amount 320 g/ha; foliage application
How it was run: as §1

Chenopodium album = experiment: as above; details: Application herbicide amount 320 g/ha; foliage application
How it was run: as §1

Setaria viridis = experiment: as above; details: Application herbicide amount 320 g/ha; foliage application
How it was run: as §1

Scirpus juncoides = experiment: Test Example 1: herbicidal activity, application before weed generation in submerged conditions; details: Application herbicide amount 320 g/ha; Seventeenth Table
How it was run: (§2)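 Alluvial soil in Wagner pots flooded to 4 cm water depth; weed seeds sown and 2.5 leaf stage rice seedlings transplanted. Emulsion diluted in water applied to water surface on sowing day at stated g/ha. Greenhouse 25° C. to 30° C.; effects scored 0–5 by herbicidal ratio after three weeks.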

Monochoria vaginalis = experiment: as above; details: Application herbicide amount 320 g/ha; Seventeenth Table
How it was run: as §2

[3] = test system: Echinochloa oryzacola Vasing.; experiment: as above; details: Application herbicide amount 320 g/ha; Seventeenth Table
How it was run: as §2

Structure (SMILES): Cc1nnc(NC(=O)c2ccc(C(F)(F)F)n3c(N4CCCC4)nnc23)o1 [1-136]
- e (Triticum aestivum) effect on crop grade (Triticum aestivum): 0 (Herbicidal ratio of 5% or less (almost no effect))
- g (Brassica campestris L.) effect on crop grade (Brassica campestris L.): 0 (Herbicidal ratio of 5% or less (almost no effect))
- d (Glycine max) effect on crop grade (Glycine max): 3 (Herbicidal ratio of 40% or more and less than 70%)
- f (Beta vulgaris ssp. vulgaris) effect on crop grade [1]: 4 (Herbicidal ratio of 70% or more and less than 90%)
- c (Zea mays) effect on crop grade (Zea mays): 1 (Herbicidal ratio of 5% or more and less than 20%)
- I (Avena fatua) herbicidal effect grade (Avena fatua): 0 (Herbicidal ratio of 5% or less (almost no effect))
- M (Abutilon theophrasti) herbicidal effect grade (Abutilon theophrasti): 3 (Herbicidal ratio of 40% or more and less than 70%)
- N (Amaranthus retroflexus) herbicidal effect grade (Amaranthus retroflexus): 2 (Herbicidal ratio of 20% or more and less than 40%)
- H (Echinochloa crus-galli var. crus-galli) herbicidal effect grade [2]: 4 (Herbicidal ratio of 70% or more and less than 90%)
- F (Digitaria ciliaris) herbicidal effect grade (Digitaria ciliaris): 4 (Herbicidal ratio of 70% or more and less than 90%)
- P (Stellaria media) herbicidal effect grade (Stellaria media): 4 (Herbicidal ratio of 70% or more and less than 90%)
- K (Lolium multiflorum Lam.) herbicidal effect grade (Lolium multiflorum Lam.): 0 (Herbicidal ratio of 5% or less (almost no effect))
- J (Alopecurus myosuroides) herbicidal effect grade (Alopecurus myosuroides): 0 (Herbicidal ratio of 5% or less (almost no effect))
- L (Apera spica-venti.) herbicidal effect grade (Apera spica-venti.): 1 (Herbicidal ratio of 5% or more and less than 20%)
- Q (Galium spurium) herbicidal effect grade (Galium spurium): 0 (Herbicidal ratio of 5% or less (almost no effect))
- R (Veronica persica) herbicidal effect grade (Veronica persica): 3 (Herbicidal ratio of 40% or more and less than 70%)
- O (Chenopodium album) herbicidal effect grade (Chenopodium album): 5 (Herbicidal ratio of 90% or more (almost completely withered))
- G (Setaria viridis) herbicidal effect grade (Setaria viridis): 2 (Herbicidal ratio of 20% or more and less than 40%)
- B: Scirpus juncoides (herbicidal effect grade) (Scirpus juncoides): 3 (Herbicidal ratio of 40% or more and less than 70%)
- C: Monochoria vaginalis (herbicidal effect grade) (Monochoria vaginalis): 3 (Herbicidal ratio of 40% or more and less than 70%)
- A: Echinochloa oryzicola Vasing. (herbicidal effect grade) [3]: 5 (Herbicidal ratio of 90% or more (almost completely withered))

Structure (SMILES): CCN(C)c1nnc2c(C(=O)Nc3nnco3)ccc(C(F)(F)F)n12 [1-137]
- e (Triticum aestivum) effect on crop grade (Triticum aestivum): 2 (Herbicidal ratio of 20% or more and less than 40%)
- g (Brassica campestris L.) effect on crop grade (Brassica campestris L.): 5 (Herbicidal ratio of 90% or more (almost completely withered))
- d (Glycine max) effect on crop grade (Glycine max): 4 (Herbicidal ratio of 70% or more and less than 90%)
- f (Beta vulgaris ssp. vulgaris) effect on crop grade [1]: 5 (Herbicidal ratio of 90% or more (almost completely withered))
- c (Zea mays) effect on crop grade (Zea mays): 0 (Herbicidal ratio of 5% or less (almost no effect))
- I (Avena fatua) herbicidal effect grade (Avena fatua): 3 (Herbicidal ratio of 40% or more and less than 70%)
- M (Abutilon theophrasti) herbicidal effect grade (Abutilon theophrasti): 3 (Herbicidal ratio of 40% or more and less than 70%)
- N (Amaranthus retroflexus) herbicidal effect grade (Amaranthus retroflexus): 4 (Herbicidal ratio of 70% or more and less than 90%)
- H (Echinochloa crus-galli var. crus-galli) herbicidal effect grade [2]: 5 (Herbicidal ratio of 90% or more (almost completely withered))
- F (Digitaria ciliaris) herbicidal effect grade (Digitaria ciliaris): 4 (Herbicidal ratio of 70% or more and less than 90%)
- P (Stellaria media) herbicidal effect grade (Stellaria media): 5 (Herbicidal ratio of 90% or more (almost completely withered))
- K (Lolium multiflorum Lam.) herbicidal effect grade (Lolium multiflorum Lam.): 2 (Herbicidal ratio of 20% or more and less than 40%)
- J (Alopecurus myosuroides) herbicidal effect grade (Alopecurus myosuroides): 2 (Herbicidal ratio of 20% or more and less than 40%)
- L (Apera spica-venti.) herbicidal effect grade (Apera spica-venti.): 4 (Herbicidal ratio of 70% or more and less than 90%)
- Q (Galium spurium) herbicidal effect grade (Galium spurium): 3 (Herbicidal ratio of 40% or more and less than 70%)
- R (Veronica persica) herbicidal effect grade (Veronica persica): 5 (Herbicidal ratio of 90% or more (almost completely withered))
- O (Chenopodium album) herbicidal effect grade (Chenopodium album): 5 (Herbicidal ratio of 90% or more (almost completely withered))
- G (Setaria viridis) herbicidal effect grade (Setaria viridis): 5 (Herbicidal ratio of 90% or more (almost completely withered))
- B: Scirpus juncoides (herbicidal effect grade) (Scirpus juncoides): 5 (Herbicidal ratio of 90% or more (almost completely withered))
- C: Monochoria vaginalis (herbicidal effect grade) (Monochoria vaginalis): 5 (Herbicidal ratio of 90% or more (almost completely withered))
- A: Echinochloa oryzicola Vasing. (herbicidal effect grade) [3]: 5 (Herbicidal ratio of 90% or more (almost completely withered))

Structure (SMILES): CCN(CC)c1nnc2c(C(=O)Nc3nnco3)ccc(C(F)(F)F)n12 [1-138]
- e (Triticum aestivum) effect on crop grade (Triticum aestivum): 1 (Herbicidal ratio of 5% or more and less than 20%)
- g (Brassica campestris L.) effect on crop grade (Brassica campestris L.): 4 (Herbicidal ratio of 70% or more and less than 90%)
- d (Glycine max) effect on crop grade (Glycine max): 3 (Herbicidal ratio of 40% or more and less than 70%)
- f (Beta vulgaris ssp. vulgaris) effect on crop grade [1]: 5 (Herbicidal ratio of 90% or more (almost completely withered))
- c (Zea mays) effect on crop grade (Zea mays): 0 (Herbicidal ratio of 5% or less (almost no effect))
- I (Avena fatua) herbicidal effect grade (Avena fatua): 2 (Herbicidal ratio of 20% or more and less than 40%)
- M (Abutilon theophrasti) herbicidal effect grade (Abutilon theophrasti): 3 (Herbicidal ratio of 40% or more and less than 70%)
- N (Amaranthus retroflexus) herbicidal effect grade (Amaranthus retroflexus): 4 (Herbicidal ratio of 70% or more and less than 90%)
- H (Echinochloa crus-galli var. crus-galli) herbicidal effect grade [2]: 5 (Herbicidal ratio of 90% or more (almost completely withered))
- F (Digitaria ciliaris) herbicidal effect grade (Digitaria ciliaris): 4 (Herbicidal ratio of 70% or more and less than 90%)
- P (Stellaria media) herbicidal effect grade (Stellaria media): 5 (Herbicidal ratio of 90% or more (almost completely withered))
- K (Lolium multiflorum Lam.) herbicidal effect grade (Lolium multiflorum Lam.): 1 (Herbicidal ratio of 5% or more and less than 20%)
- J (Alopecurus myosuroides) herbicidal effect grade (Alopecurus myosuroides): 1 (Herbicidal ratio of 5% or more and less than 20%)
- L (Apera spica-venti.) herbicidal effect grade (Apera spica-venti.): 3 (Herbicidal ratio of 40% or more and less than 70%)
- Q (Galium spurium) herbicidal effect grade (Galium spurium): 2 (Herbicidal ratio of 20% or more and less than 40%)
- R (Veronica persica) herbicidal effect grade (Veronica persica): 5 (Herbicidal ratio of 90% or more (almost completely withered))
- O (Chenopodium album) herbicidal effect grade (Chenopodium album): 5 (Herbicidal ratio of 90% or more (almost completely withered))
- G (Setaria viridis) herbicidal effect grade (Setaria viridis): 3 (Herbicidal ratio of 40% or more and less than 70%)
- B: Scirpus juncoides (herbicidal effect grade) (Scirpus juncoides): 5 (Herbicidal ratio of 90% or more (almost completely withered))
- C: Monochoria vaginalis (herbicidal effect grade) (Monochoria vaginalis): 4 (Herbicidal ratio of 70% or more and less than 90%)
- A: Echinochloa oryzicola Vasing. (herbicidal effect grade) [3]: 5 (Herbicidal ratio of 90% or more (almost completely withered))

Structure (SMILES): O=C(Nc1nnco1)c1ccc(C(F)(F)F)n2c(N3CCCC3)nnc12 [1-139]
- e (Triticum aestivum) effect on crop grade (Triticum aestivum): 1 (Herbicidal ratio of 5% or more and less than 20%)
- g (Brassica campestris L.) effect on crop grade (Brassica campestris L.): 4 (Herbicidal ratio of 70% or more and less than 90%)
- d (Glycine max) effect on crop grade (Glycine max): 3 (Herbicidal ratio of 40% or more and less than 70%)
- f (Beta vulgaris ssp. vulgaris) effect on crop grade [1]: 5 (Herbicidal ratio of 90% or more (almost completely withered))
- c (Zea mays) effect on crop grade (Zea mays): 0 (Herbicidal ratio of 5% or less (almost no effect))
- I (Avena fatua) herbicidal effect grade (Avena fatua): 1 (Herbicidal ratio of 5% or more and less than 20%)
- M (Abutilon theophrasti) herbicidal effect grade (Abutilon theophrasti): 3 (Herbicidal ratio of 40% or more and less than 70%)
- N (Amaranthus retroflexus) herbicidal effect grade (Amaranthus retroflexus): 4 (Herbicidal ratio of 70% or more and less than 90%)
- H (Echinochloa crus-galli var. crus-galli) herbicidal effect grade [2]: 5 (Herbicidal ratio of 90% or more (almost completely withered))
- F (Digitaria ciliaris) herbicidal effect grade (Digitaria ciliaris): 5 (Herbicidal ratio of 90% or more (almost completely withered))
- P (Stellaria media) herbicidal effect grade (Stellaria media): 5 (Herbicidal ratio of 90% or more (almost completely withered))
- K (Lolium multiflorum Lam.) herbicidal effect grade (Lolium multiflorum Lam.): 1 (Herbicidal ratio of 5% or more and less than 20%)
- J (Alopecurus myosuroides) herbicidal effect grade (Alopecurus myosuroides): 0 (Herbicidal ratio of 5% or less (almost no effect))
- L (Apera spica-venti.) herbicidal effect grade (Apera spica-venti.): 0 (Herbicidal ratio of 5% or less (almost no effect))
- Q (Galium spurium) herbicidal effect grade (Galium spurium): 2 (Herbicidal ratio of 20% or more and less than 40%)
- R (Veronica persica) herbicidal effect grade (Veronica persica): 5 (Herbicidal ratio of 90% or more (almost completely withered))
- O (Chenopodium album) herbicidal effect grade (Chenopodium album): 5 (Herbicidal ratio of 90% or more (almost completely withered))
- G (Setaria viridis) herbicidal effect grade (Setaria viridis): 3 (Herbicidal ratio of 40% or more and less than 70%)
- B: Scirpus juncoides (herbicidal effect grade) (Scirpus juncoides): 4 (Herbicidal ratio of 70% or more and less than 90%)
- C: Monochoria vaginalis (herbicidal effect grade) (Monochoria vaginalis): 3 (Herbicidal ratio of 40% or more and less than 70%)
- A: Echinochloa oryzicola Vasing. (herbicidal effect grade) [3]: 5 (Herbicidal ratio of 90% or more (almost completely withered))
